Assay results published in ChEMBL document CHEMBL4346660, “Cryptolepine and aromathecin based mimics as potent G-quadruplex-binding, DNA-cleavage and anticancer agents: Design, synthesis and DNA targeting-induced apoptosis” (Eur J Med Chem, 2019).
The source made the active and inactive calls. The rule behind the calls is not given here.

Tests used:
MGC-803 [1] = assay: Antiproliferative activity against human MGC803 cells assessed as reduction in cell viability incubated for 48 hrs by MTT assay; assay type: functional, cell-based; settings: MGC-803, 48 h
T-24 = assay: Antiproliferative activity against human T24 cells assessed as reduction in cell viability incubated for 48 hrs by MTT assay; assay type: functional, cell-based; settings: T-24, 48 h
HepG2 = assay: Antiproliferative activity against human HepG2 cells assessed as reduction in cell viability incubated for 48 hrs by MTT assay; assay type: functional, cell-based; settings: HepG2, 48 h
NCI-H460 = assay: Antiproliferative activity against human NCI-H460 cells assessed as reduction in cell viability incubated for 48 hrs by MTT assay; assay type: functional, cell-based; settings: NCI-H460, 48 h
L02 = assay: Cytotoxicity against human HL7702 cells assessed as reduction in cell viability incubated for 48 hrs by MTT assay; assay type: cell-based; settings: L02, 48 h
MGC-803 [2] = assay: Antitumor activity against human MGC803 cells xenografted in BALB/C mouse assessed as tumor growth inhibition at 6 mg/kg, ip administered every other day for 2 weeks measured during compound dosing relative to control; assay type: functional; settings: MGC-803, ip, 336 h, read-out: TGI
DNA = assay: Binding affinity to Escherichia coli supercoiled pBR322 DNA assessed as DNA intercalation at 5 uM after 3 hrs by ethidium bromide staining-based agarose gel electrophoresis analysis; assay type: nucleic-acid assay

| Compound | IC50 (MGC-803 [1]) | IC50 (T-24) | IC50 (HepG2) | IC50 (NCI-H460) | IC50 (L02) | inhibition in vivo at 6 mg/kg (MGC-803 [2]) | Activity (DNA) |
| --- | --- | --- | --- | --- | --- | --- | --- |
| CN(C)CCNc1c2c(nc3ccc(Br)cc13)-c1ccccc1C2 | 2.98 µM | 2.21 µM | 4.18 µM | 2.8 µM | 6.43 µM | – | – |
| COc1cc2c(cc1OC)-c1nc3ccccc3c(NCCCN3CCOCC3)c1C2 | 2.52 µM | 2.77 µM | 3.94 µM | 5 µM | 4.97 µM | – | – |
| COc1cc2c(cc1OC)-c1nc3ccc(Br)cc3c(NCCCN(C)C)c1C2 | 3.66 µM | 4.97 µM | 6.38 µM | 5.73 µM | 7.06 µM | – | – |
| CC[C@@]1(O)C(=O)OCc2c1cc1n(c2=O)Cc2cc3ccccc3nc2-1 [CAMPTOTHECIN] | 4.27 µM | 3.09 µM | 5.69 µM | 5.37 µM | 2.15 µM | 62.3% | – |
| COc1cc2c(cc1OC)-c1nc3ccc(C)cc3c(NCCN(C)C)c1C2 | 2.46 µM | 2.39 µM | 2.57 µM | 4.99 µM | 3.01 µM | – | – |
| COc1cc2c(cc1OC)-c1nc3ccc(Cl)cc3c(NCCN(C)C)c1C2 | 2.22 µM | 2.21 µM | 3.12 µM | 2.55 µM | 2.56 µM | – | – |
| CN(C)CCCNc1c2c(nc3ccccc13)-c1ccccc1C2 | 0.95 µM | 0.31 µM | 2.6 µM | 1.66 µM | 0.91 µM | – | – |
| Cc1ccc2nc3c(c(NCCN(C)C)c2c1)Cc1ccccc1-3 | 0.92 µM | 0.31 µM | 1.71 µM | 1.03 µM | 1.15 µM | – | – |
| COc1cc2c(cc1OC)-c1nc3ccccc3c(NCCCN(C)C)c1C2 | 5.17 µM | 2.47 µM | 4.6 µM | 3.92 µM | 4.35 µM | – | – |
| COc1cc2c(cc1OC)-c1nc3ccc(Cl)cc3c(NCCCN3CCOCC3)c1C2 | 4.13 µM | 2.23 µM | 7.6 µM | 2.4 µM | 3.8 µM | – | – |
| CN(C)CCNc1c2c(nc3ccc(F)cc13)-c1ccccc1C2 | 1.78 µM | 1.15 µM | 2.59 µM | 2.89 µM | 3.22 µM | – | – |
| CN(C)CCCNc1c2c(nc3ccc(Cl)cc13)-c1ccccc1C2 | 1.11 µM | 0.91 µM | 2.14 µM | 2.31 µM | 2.3 µM | – | – |
| COc1cc2c(cc1OC)-c1nc3ccc(Cl)cc3c(NCCCN(C)C)c1C2 | 1.58 µM | 2.09 µM | 4.18 µM | 1.95 µM | 2.6 µM | – | – |
| COc1cc2c(cc1OC)-c1nc3ccc(C)cc3c(NCCCN3CCOCC3)c1C2 | 3.5 µM | 4.62 µM | 7.46 µM | 5.64 µM | 7.72 µM | – | – |
| CN(C)CCNc1c2c(nc3ccc(Cl)cc13)-c1ccccc1C2 | 3.49 µM | 1.74 µM | 6.71 µM | 4.96 µM | 3.6 µM | – | – |
| Cc1ccc2nc3c(c(NCCCN4CCOCC4)c2c1)Cc1ccccc1-3 | 1.42 µM | 0.58 µM | 1.88 µM | 0.89 µM | 1.67 µM | – | – |

| Compound | IC50 (MGC-803 [1]) | IC50 (T-24) | IC50 (HepG2) | IC50 (NCI-H460) | IC50 (L02) | inhibition in vivo at 6 mg/kg (MGC-803 [2]) | Activity (DNA) |
| --- | --- | --- | --- | --- | --- | --- | --- |
| COc1cc2c(cc1OC)-c1nc3ccc(Br)cc3c(NCCCN3CCOCC3)c1C2 | 3.38 µM | 2.64 µM | 3.97 µM | 4.25 µM | 5.02 µM | – | – |
| COc1cc2c(cc1OC)-c1nc3ccc(F)cc3c(NCCN(C)C)c1C2 | 2.35 µM | 2.2 µM | 1.77 µM | 5.73 µM | 4.38 µM | – | – |
| COc1cc2c(cc1OC)-c1nc3ccc(F)cc3c(NCCCN(C)C)c1C2 | 2.11 µM | 2.86 µM | 5.23 µM | 3.52 µM | 3.07 µM | – | – |
| CC[n+]1c(-c2ccccc2)c2cc(N)ccc2c2ccc(N)cc21 | – | – | – | – | – | – | Active |
| Fc1ccc2nc3c(c(NCCCN4CCOCC4)c2c1)Cc1ccccc1-3 | 2.79 µM | 1.9 µM | 4.46 µM | 6.66 µM | 3.05 µM | – | – |
| CN(C)CCNc1c2c(nc3ccccc13)-c1ccccc1C2 | 0.93 µM | 0.61 µM | 2.31 µM | 1.23 µM | 1.31 µM | – | – |
| COc1cc2c(cc1OC)-c1nc3ccccc3c(NCCN(C)C)c1C2 | 1.36 µM | 1.82 µM | 3.14 µM | 3.1 µM | 2.06 µM | – | – |
| COc1cc2c(cc1OC)-c1nc3ccc(F)cc3c(NCCCN3CCOCC3)c1C2 | 3.7 µM | 3.74 µM | 8.74 µM | 6.42 µM | 3.71 µM | – | – |
| Brc1ccc2nc3c(c(NCCCN4CCOCC4)c2c1)Cc1ccccc1-3 | 7.5 µM | 9.41 µM | 6.32 µM | 8.57 µM | 5.71 µM | – | – |
| Cc1ccc2nc3c(c(NCCCN(C)C)c2c1)Cc1ccccc1-3 | 0.86 µM | 0.84 µM | 1.19 µM | 1.16 µM | 0.58 µM | – | – |
| COc1cc2c(cc1OC)-c1nc3ccc(C)cc3c(NCCCN(C)C)c1C2 | 5.08 µM | 4.64 µM | 12 µM | 5.52 µM | 4.94 µM | – | – |
| Clc1ccc2nc3c(c(NCCCN4CCOCC4)c2c1)Cc1ccccc1-3 | 6.89 µM | 4.32 µM | 5.9 µM | 5.21 µM | 7.12 µM | – | – |
| CN(C)CCCNc1c2c(nc3ccc(Br)cc13)-c1ccccc1C2 | 1.8 µM | 1.36 µM | 3.12 µM | 2.02 µM | 1.64 µM | – | – |
| c1ccc2c(c1)Cc1c-2nc2ccccc2c1NCCCN1CCOCC1 | 1.95 µM | 1.43 µM | 4.48 µM | 4.6 µM | 4.73 µM | – | – |
| COc1cc2c(cc1OC)-c1nc3ccc(Br)cc3c(NCCN(C)C)c1C2 | 2.73 µM | 1.53 µM | 1.61 µM | 2.83 µM | 6.95 µM | – | – |
